One substance from patent publication US20060052289A1, “Use of somatostatin analogs in sleep apnea” (priority 2003, published 2006) can be followed below.

Data set [1] is described as follows: Tolerability at dosages required for use. Format: in vivo. The note with it: free form or pharmaceutically acceptable salt form.
For data set [2], the system named is patients with predominantly obstructive sleep apnea. Briefly: Clinical study in obstructive sleep apnea. Format: in vivo, human. The note with it: s.c. 100-600 μg, 2 months. The protocol: Obstructive Sleep Apnea: 10 patients with predominantly obstructive sleep apnea are treated with Compound A for 2 months. Sleep recordings, blood gases evaluation and endocrinological controls are performed before, on the first night and at 2 months of therapy. In this study, the compounds of the invention, e.g. Compound A, reduce the number of obstructive sleep apnea episodes when administered s.c. at a dose of 100-600 μg.

Data set [3] concerns patients with central sleep apnea. In words: Clinical study in central sleep apnea. Format: in vivo, human. The settings on record: s.c. 100-600 μg, 2 months. Here is the method: Central Sleep Apnea: 10 patients with central sleep apnea associated with high ventilatory responses to carbon dioxide, are treated with a compound of the invention for 2 months. Sleep recordings, ventilatory control studies (blood gases) and endocrinological controls are performed before, on the first night, at 2 weeks and at 2 months of therapy. In this study, the compounds of the invention, e.g. Compound A, reduce the abnormal high ventilatory responses and the number of central sleep apnea episodes, when administered s.c. at a dose of 100-600 μg.

Consider “cyclo[{4-(NH2—C2H4—NH—CO—O—)Pro}-Phg-DTrp-Lys-Tyr(4-Bzl)-Phe] [Compound A]”, for which, in data set [1], the tolerability result is “well tolerated”. Moreover, the “number of obstructive sleep apnea episodes” value in data set [2] was “reduce”. For the same substance, in data set [3], the “abnormal high ventilatory responses” value is given as “reduce” and the “number of central sleep apnea episodes” value is “reduce”.
